As usually defined, the IC50 is the concentration that inhibits the measured activity by half.

For this experiment, the target named is T1, human cardiac ion channel proteins hKir3.1/Kir3.4 (Homo sapiens, UniProt P48544+P48549).
T1 construct: expressed in transfected cells
T1 sequence (P48549 1-501): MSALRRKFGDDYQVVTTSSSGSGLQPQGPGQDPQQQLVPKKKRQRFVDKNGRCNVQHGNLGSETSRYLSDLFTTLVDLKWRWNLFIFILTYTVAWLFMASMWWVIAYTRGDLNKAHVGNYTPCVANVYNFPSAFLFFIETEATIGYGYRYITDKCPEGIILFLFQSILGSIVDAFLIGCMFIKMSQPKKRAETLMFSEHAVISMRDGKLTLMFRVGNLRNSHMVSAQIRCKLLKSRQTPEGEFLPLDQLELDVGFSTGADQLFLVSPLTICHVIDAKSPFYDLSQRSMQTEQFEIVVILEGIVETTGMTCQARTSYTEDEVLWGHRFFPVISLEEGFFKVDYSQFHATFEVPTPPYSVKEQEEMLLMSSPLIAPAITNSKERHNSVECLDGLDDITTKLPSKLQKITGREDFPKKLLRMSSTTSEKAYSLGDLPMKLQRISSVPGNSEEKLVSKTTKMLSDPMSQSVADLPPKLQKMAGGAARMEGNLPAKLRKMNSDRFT
T1 sequence (P48544 1-419): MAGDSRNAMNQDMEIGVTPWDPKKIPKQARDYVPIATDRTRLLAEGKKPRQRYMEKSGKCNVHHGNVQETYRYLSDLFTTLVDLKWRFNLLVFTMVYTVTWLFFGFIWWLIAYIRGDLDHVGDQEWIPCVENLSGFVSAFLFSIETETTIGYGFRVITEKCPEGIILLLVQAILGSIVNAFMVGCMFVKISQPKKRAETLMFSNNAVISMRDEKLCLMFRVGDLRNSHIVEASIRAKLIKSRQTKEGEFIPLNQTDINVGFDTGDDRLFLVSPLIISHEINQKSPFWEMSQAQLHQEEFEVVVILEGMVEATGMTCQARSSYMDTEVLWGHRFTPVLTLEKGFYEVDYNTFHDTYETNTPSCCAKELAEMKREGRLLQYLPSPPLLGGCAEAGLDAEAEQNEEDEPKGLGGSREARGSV
As to the kind of experiment: Atomic Absorption Screening (AAS) Rb efflux assay of hKir3.1/Kir3.4 block, carbachol/high K+ stimulated, 10-pt or 7-pt CR. Format: cell-based. As to conditions: 10-pt CR (0.003 to 67 μmol/L), AAS Rb efflux, CHO-K1 cells expressing hKir3.1/Kir3.4; mean of >4 replicates; read-out: IKACh IC50 10-pt CR, AAS. In short, it runs like this: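 CHO-K1 cells stably co-expressing human Kir3.1/Kir3.4 were Rb-loaded for 3 h at 37° C, preincubated with compound 5 min at RT, then stimulated 10 min with 10 μM carbachol plus 20 mM KCl (final). Supernatant Rb was measured by atomic absorption. Compounds ran at 0.003–67 μmol/L (10-pt) or 0.037–27 μmol/L (7-pt), threefold dilutions; IC50s are means of >4 or >3 replicates respectively.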

With `CN(C(=O)c1cccc(Cl)c1F)[C@@H](CN1CC(O)C1)C1CCC1` [Example 35.11, 3-Chloro-N-[(1R)-1-cyclobutyl-2-(3-hydroxyazetidin-1-yl)ethyl]-2-fluoro-N-methylbenzamide], the IC50 worked out at 4800 nM.
Take `COc1ccc(C(=O)N(C)[C@@H](CN2CC(O)C2)C2CCC2)c(F)c1` [Example 35.12, N-[(1R)-1-Cyclobutyl-2-(3-hydroxyazetidin-1-yl)ethyl]-2-fluoro-4-methoxy-N-methylbenzamide]: the IC50 amounted to 16000 nM.
The figure for `COc1ccc(C(=O)N(C)[C@@H](CN2CC(O)C2)C2CCC2)cc1F` [Example 35.13, N-[(1R)-1-Cyclobutyl-2-(3-hydroxyazetidin-1-yl)ethyl]-3-fluoro-4-methoxy-N-methylbenzamide] is 11000 nM; for `CN(C(=O)c1ccccc1)[C@@H](CN1CC(O)C1)C1CCC1` [Example 35.14, N-[(1R)-1-Cyclobutyl-2-(3-hydroxyazetidin-1-yl)ethyl]-N-methylbenzamide] it is 13000 nM.
Turning to `CN(C(=O)c1ccc(C#N)cc1)[C@H](CN1CC(O)C1)C1CCCCC1` [Example 36.1, 4-cyano-N-[(1S)-1-cyclohexyl-2-(3-hydroxyazetidin-1-yl)ethyl]-N-methylbenzamide], the IC50 was 410 nM.
For `CN(C(=O)c1ccc(Cl)cc1)[C@H](CN1CC(O)C1)C1CCCCC1` [Example 36.2, 4-Chloro-N-[(1S)-1-cyclohexyl-2-(3-hydroxyazetidin-1-yl)ethyl]-N-methylbenzamide] the value was 49 nM; for `CN(C(=O)c1cccc(C#N)c1)[C@H](CN1CC(O)C1)C1CCCCC1` [Example 36.3, 3-Cyano-N-[(1S)-1-cyclohexyl-2-(3-hydroxyazetidin-1-yl)ethyl]-N-methylbenzamide], 920 nM.
Turning to `CN(C(=O)c1ccc(C#N)cc1F)[C@H](CN1CC(O)C1)C1CCCCC1` [Example 36.4, 4-Cyano-N-[(1S)-1-cyclohexyl-2-(3-hydroxyazetidin-1-yl)ethyl]-2-fluoro-N-methylbenzamide], the IC50 amounted to 330 nM.
Turning to `CN(C(=O)c1ccc(C(C)(C)C#N)cc1)[C@H](CN1CC(O)C1)C1CCCCC1` [Example 36.5, 4-(2-Cyanopropan-2-yl)-N-[(1S)-1-cyclohexyl-2-(3-hydroxyazetidin-1-yl)ethyl]-N-methylbenzamide], the IC50 was determined as 1900 nM.
For `CN(C(=O)c1cc(F)cc(C#N)c1)[C@H](CN1CC(O)C1)C1CCCCC1` [Example 36.6, 3-Cyano-N-[(1S)-1-cyclohexyl-2-(3-hydroxyazetidin-1-yl)ethyl]-5-fluoro-N-methylbenzamide] the value was 1900 nM; for `CN(C(=O)c1ccc(F)cc1)[C@H](CN1CC(O)C1)C1CCCCC1` [Example 36.7, N-[(1S)-1-Cyclohexyl-2-(3-hydroxyazetidin-1-yl)ethyl]-4-fluoro-N-methylbenzamide], 1400 nM; for `CN(C(=O)c1ccccc1)[C@H](CN1CC(O)C1)C1CCCCC1` [Example 36.8, N-[(1S)-1-Cyclohexyl-2-(3-hydroxyazetidin-1-yl)ethyl]-N-methylbenzamide], 1100 nM.
For the compound `CCC[C@H](CN1CC(O)C1)N(C)C(=O)c1ccc(Cl)cc1` [Example 37, 4-Chloro-N-[(2R)-1-(3-hydroxyazetidin-1-yl)pentan-2-yl]-N-methylbenzamide], the IC50 was 9700 nM.
Turning to `CCc1ccc(C(=O)N(C)[C@@H](CC(C)C)CN2CC(O)C2)cc1` [Example 38.3, 4-Ethyl-N-[(2S)-1-(3-hydroxyazetidin-1-yl)-4-methylpentan-2-yl]-N-methylbenzamide], the IC50 was 2100 nM.
Take `CC(C)C[C@@H](CN1CC(O)C1)N(C)C(=O)c1cccc(C(F)F)c1` [Example 38.4, 3-(Difluoromethyl)-N-[(2S)-1-(3-hydroxyazetidin-1-yl)-4-methylpentan-2-yl]-N-methylbenzamide]: the 50% inhibitory concentration (IC50) came out at 770 nM.

The record behind these values is patent US8361998B2, “Compounds and their use as IKACh blockers” (AstraZeneca AB, priority 2010, dated 2013).
